From EP0073849A1, “Novel phenyl-1,2,3,4-tetrahydrocarbazoles, their preparation and pharmaceutical compositions containing them” (priority 1981, dated 1983)

Key:
rat muricide = rat muricide test; type: in vivo; details: ip, intraperitoneal administration
Text: In the rat muricide test (based on the method of Horovitz et al., Int. J.

[1] = test system: abnormal behaviour of beagles; test: improvement of abnormal behaviour in beagles; type: in vivo; details: Canis lupus familiaris, po; read-out: MED for improvement of abnormal behaviour in beagles
[2] = test system: behaviour, neurologic function, autonomic function; details: rat, in vivo, ip
[3] = test system: beagles with normal behaviour; test: in vivo; details: dog, po
in vivo [4] = test: in vivo; set-up: species or system beagles; details: dog, po
in vivo [5] = details: rat, ip

| SMILES | ED50 (rat muricide) | minimal effective dose [1] | dosage levels that cause changes in behaviour, in neurologic function or in autonomic function [2] | dose causing decreased motor activity and passivity [3] | dose causing decreased motor activity and passivity as multiple of the MED [3] | dose causing tremors and mydriasis [3] | NOAEL at 6 h (in vivo [4]) | selectivity ratio (in vivo [5]) |
| --- | --- | --- | --- | --- | --- | --- | --- | --- |
| CN(C)CCC=C1c2ccccc2CCc2ccccc21 [Amitriptyline] | 5.2 mg/kg |  |  |  |  |  |  |  |
| CN(C)CCCN1c2ccccc2CCc2ccccc21 [Imipramine] | 6.4 mg/kg | 10 mg/kg | 30 mg./kg | 30 mg/kg | three | 10 mg/kg |  |  |
| COc1ccc2[nH]c3c(c2c1)CC(c1ccccc1)CC3 (stereo not drawn) [Test compound, 6-Methoxy-3-phenyl-1,2,3,4-tetrahydrocarbazole] | 1.7 mg/kg | 10 mg/kg | 100-1000 mg./kg |  |  |  | > 60 mg/kg | 50 to 500 |
